In patent US8183364B2, “Substituted porphyrins” (Duke University, priority 2004, dated 2012):
Entries after “also recorded” stand apart in the source; their conditions may differ. Marks after values point to notes of the source that are not given here.

Experiments:
[1] = cited from earlier work; for Metal-centered redox potential E1/2: Mn(III)/Mn(II), 0.1 M NaCl, 0.05 M phosphate buffer, pH 7.8, data from Batinic-Haberle et al 2002
[2] = pH 7.8; cited from earlier work
[3] = Oxidative degradation in the presence of ascorbic acid under aerobic conditions; type: physicochemical; details: pH 7.8 (0.05 M tris buffer)
Procedure: Under these conditions porphyrins underwent oxidative degradation. As previously observed (Batinic-Haberle et al, J. Chem. Soc., Dalton Trans., pgs. 2689-2696 (2002)), those porphyrins that are of more positive E1/2 are stabilized in +2 oxidation state and are less prone to oxidative damage. Accordingly, 27% and 24% of MnTE-2-PyP^5+ and MnTMOE-2-PyP^5+ undergo degradation within 2 hours, but only 2% of MnTM,MOE-2-ImP^5+ and MnTDMOE-2-ImP^5+ and 3% of MnTDE-2-ImP^5+.

[4] = Kinetic salt effect on O2.^− dismutation by cytochrome c assay; type: biochemical; details: 0.05 M phosphate buffer, pH 7.8, 0-0.4 M NaCl
Procedure: Kinetic salt effect. The dependence of the catalytic rate constant for the O2.^− dismutation upon ionic strength was determined by cytochrome c assay (McCord and Fridovich, J. Biol. Chem. 244:6049 (1969)) in 0.05 M phosphate buffer, pH 7.8 with NaCl ranging from 0 to 0.4 M. In doing this, the effect of ionic strength on the rate of the O2.^−/cytochrome c reaction was corrected for.
Kinetic salt effect. The effect of the ionic strength (μ) on the catalytic rate constant was assessed using eq which is based on Debye-Huckel relation (Hambright et al, J. Porphyrins Phthalocyanines 7:139-146 (2003)) for the effect of the ionic strength of the solution on the activity coefficient of an ion. log k=log kref+2AzAzBμ^1/2/(1+μ^1/2) The k is the rate constant at any given ionic strength, while kref is the rate constant at μ=0. The A is a collection of physical constants with a value of 0.509 and zA and zB are the charges of the reacting species. The equation predicts a linear plot of log k vs μ^1/2/(1+μ^1/2). Eq assumes a coefficient of 1.0 (βai) for μ^1/2 in the denominator, i.e., the distance of the closest approach, ai to be 3 A and β is a physical constant, […]. It is doubtful whether great significance can be attributed to the ai, thus to the product zAzB (Hambright et al, J. Porphyrins Phthalocyanines 7:139-146 (2003)), especially so in the light of the bulkiness, high charge and solvation shell of the metalloporphyrins. Accounting for the mono- and diprotonated phosphates as the major species at pH 7.8 (pKa=7.2), and the concentration of the NaCl, the ionic strength was calculated using equation μ=½ Σ mizi^2 where mi is the molality and zi the charge of the given ion.
The slopes of the plots are −6.48 (MnTE-2-PyP^5+), −7.02 (MnTMOE-2-PyP^5+), −7.38 (MnTDMOE-2-ImP^5+), and −4.15 (MnTnBu-2-PyP^5+). As expected (Hambright et al, J. Porphyrins Phthalocyanines 7:139-146 (2003)), when the reactants are ions of opposite charges, the higher the ionic strength of the solution the lower the rate constants, i.e. the slopes are negative. The slopes of the plots indicate clearly the impact of the local dielectric constant on the kcat. The kcat of the most lipophilic compound, MnTnBu-2-PyP^5+ is 40% less sensitive to the changes in ionic strength of the solution than is the kcat of its methoxyethyl analogue, MnTMOE-2-PyP^5+.

[5] = system: SOD-deficient JI132 E. coli; experiment: Aerobic growth of SOD-deficient E. coli; type: cell-based
Procedure: (§1) Aerobic growth of E. coli. Bacterial strains of E. coli used were wild type AB1157 (F-thr-1 leu-1 proA2 his-4 argE3 thr-1 lacY1 galK2 rpsL supE44 ara-14 xyl-15 mtl-1 tsx-33) and SOD-deficient JI132 (same as AB1157 plus (sodA::mudPR13)25 (sodB-kan)1-Δ2. Culture media were prepared as follows. M9 medium: 6 g/L Na2HPO4, 3 g/L KH2PO4, 0.5 g/L NaCl, 1 g/L NH4Cl, 2 mM MgSO4, 0.1 mM CaCl2, adjusted to pH 7.4 with NaOH, and supplemented with 0.2% glucose, 3 mg/L each of D-panthotenic acid and thiamine. M9CA medium contained M9 medium plus 0.2% casamino acids. 5-amino acid (5AA) minimal medium contained M9 medium plus 0.5 mM each of threonine, leucine, histidine, proline and arginine (Faulkner et al, J. Biocl. Chem. 269:23471 (1994)).
(§2) AB 1157 and 31132 were precultured overnight aerobically in M9CA medium at 37° C. and were then diluted to 3×10^7 cells/mL into 5 mL M9CA medium. JI132 was precultured in the presence of 20 μg/mL chloramphenicol and 500 μg/mL kanamycin. When the cells are transferred from M9CA medium to 5AA minimal medium cultures were first centrifuged and washed twice with the 5AA medium before final dilution in it. The centrifugation was conducted at room temperature to avoid temperature shocks. Cultures without and with Mn porphyrins (0.1 to 30 μM) were grown aerobically in 5 mL volume in test tubes in a thermostated orbital shaker (45° angle, 200 rpm) at 37° C.). Rates of growth were followed turbidimetrically at 700 nm to minimize interference from the absorbance of test compounds.

[6] = pH 7.8, (22 ± 1) °C; data from Batinic-Haberle et al 2002 (MnTE-2-PyP: Inorg. Chem. 40:726 (2001)); cited from earlier work
[7] = data from Batinic-Haberle et al 2002, cited from earlier work; for Rf (compound path/solvent path), metal-free porphyrin (in parenthesis): metal-free ligand of the named Mn porphyrin; for Rf (compound path/solvent path), Mn complex: silica gel TLC, KNO3-saturated H2O/H2O/acetonitrile = 1/1/8
wild type AB1157 E. coli = experiment: Aerobic growth of wild type E. coli (toxicity); type: cell-based; details: for toxicity to E. coli at 100-fold lower concentration: 0.3 μM; for growth of wild type E. coli: 5AA minimal medium; for toxicity to wild type E. coli / concentration at which toxicity on the parental (wild type) strain is exerted / becomes observable: M9CA medium; for toxicity to wild type E. coli: 30 μM (up to 30 μM); for concentration at which toxicity on the parental (wild type) strain is exerted / becomes observable: range 0.1 to 30 μM
Procedure: as §1, §2

[8] = previously observed (Batinic-Haberle et al 2002), compared with imidazolyl porphyrins; cited from earlier work
[9] = Thin-layer chromatography on silica gel (retention factor Rf, lipophilicity); type: physicochemical; details: Rf; vs methyl porphyrin
Procedure: Uv/vis spectra of porphyrin ligands and their Mn complexes were taken on a Shimadzu UV-2501-PC spectrophotometer at 25° C. Thin-layer chromatography of ligands and Mn complexes was done using silica gel plates with KNO3satH2O/H2O/acetonitrile=1/1/8.
Thin-layer chromatography. All new methoxyporphyrins are more lipophilic than MnTE-2-PyP^5+ and MnTDE-2-ImP^5+.

Compound	aerobic growth of SOD-deficient E. coli ([5]; 5AA minimal medium, 25 μM)	Metal-centered redox potential E1/2 [1]	log kcat for O2^− dismutation [6]	Rf (compound path/solvent path), metal-free porphyrin (in parenthesis) [7]	Rf (compound path/solvent path), Mn complex [7]	toxicity to E. coli at 100-fold lower concentration (wild type AB1157 E. coli)	growth of wild type E. coli (wild type AB1157 E. coli; 3 μM)	growth of wild type E. coli (wild type AB1157 E. coli; up to 25 μM)	concentration at which toxicity on the parental (wild type) strain is exerted / becomes observable (wild type AB1157 E. coli) [nM]	stability towards oxidative degradation [8]	also measured
Cu,Zn-SOD: superoxide dismutase enzyme	–	–	–	–	–	–	–	–	–	–	E1/2 ([1]; literature value for the enzyme): ~+300 mV vs NHE; equal rate constants of reduction and oxidation of O2.^− [2]: 2e+09 M⁻¹ s⁻¹
CC[n+]1ccccc1-c1c2nc(c(-c3cccc[n+]3CC)c3ccc([n-]3)c(-c3cccc[n+]3CC)c3nc(c(-c4cccc[n+]4CC)c4ccc1[n-]4)C=C3)C=C2.[Mn+3] [MnTE-2-PyP^5+]	most effective	+228 mV vs NHE	7.73^e	0.21	0.13	–	–	–	–	–	degradation within 2 hours [3]: 27%; slope of log kcat vs μ^1/2/(1+μ^1/2) [4]: −6.48; protection of SOD-deficient E. coli ([5]; M9CA medium, 1 μM): low protection; protection of SOD-deficient E. coli ([5]; M9CA medium, 30 μM): either much higher or near full protection; facilitation of aerobic growth of SOD-deficient E. coli, dependence on concentration ([5]; M9CA medium, 1-30 μM): concentration-dependent manner
CCCCCC[n+]1ccccc1-c1c2nc(c(-c3cccc[n+]3CCCCCC)c3ccc([n-]3)c(-c3cccc[n+]3CCCCCC)c3nc(c(-c4cccc[n+]4CCCCCC)c4ccc1[n-]4)C=C3)C=C2.[Mn+3] [MnTnHex-2-PyP^5+]	failed to do so	+314 mV vs NHE	7.48	0.63	0.57	mostly eliminated	slowed the growth	toxic	3000	same level of stability	aerobic growth of SOD-deficient E. coli ([5]; 5AA minimal medium, 3 μM): most effective; protection of SOD-deficient E. coli at 0.3 μM compared with 10 μM methyl, ethyl (and MnTDMOE-2-ImP) porphyrins ([5]; M9CA medium, listed as n-hexyl): equally protective; also recorded: the same level of protection; aerobic growth of SOD-deficient E. coli ([5]; M9CA medium, 1 and 3 μM): most effective; aerobic growth of SOD-deficient E. coli ([5]; M9CA medium, 10 and 30 μM): progressively less effective; toxicity to wild type E. coli (wild type AB1157 E. coli; listed as n-hexyl): prevented wild type E. coli to grow; also recorded: prevent wild type E. coli from growing
CCCCCCCC[n+]1ccccc1-c1c2nc(c(-c3cccc[n+]3CCCCCCCC)c3ccc([n-]3)c(-c3cccc[n+]3CCCCCCCC)c3nc(c(-c4cccc[n+]4CCCCCCCC)c4ccc1[n-]4)C=C3)C=C2.[Mn+3] [MnTnOct-2-PyP^5+]	–	+367 mV vs NHE	7.71	0.86	0.08	mostly eliminated	completely inhibited growth	toxic	300	same level of stability	lipophilicity higher than methyl porphyrin [9]: ~10 fold; protection of SOD-deficient E. coli at 0.3 μM compared with 10 μM methyl, ethyl (and MnTDMOE-2-ImP) porphyrins ([5]; M9CA medium, listed as n-octyl): equally protective; also recorded: the same level of protection; concentration at which the compound facilitates growth of SOD-deficient strain (utility) ([5]; M9CA medium, range 0.1 to 30 μM): ≤ 0.3 µM; protection of SOD-deficient E. coli higher than methyl porphyrin ([5]; vs methyl porphyrin): 30 fold; toxicity to wild type E. coli (wild type AB1157 E. coli; listed as n-octyl): prevented wild type E. coli to grow; also recorded: prevent wild type E. coli from growing; toxicity of metal-free vs Mn(III) complex (wild type AB1157 E. coli; separate experiment): equally toxic
